The source of these data is patent US11697646B2, “Triazole N-linked carbamoyl cyclohexyl acids as LPA antagonists” (BRISTOL-MYERS SQUIBB COMPANY, priority 2017, dated 2023).

SMILES strings stand for the structures. pIC50: −log10 of the molar value. Counter-ions that a name gives are not always drawn.

The target of the first experiment is T1, human LPA1 (Homo sapiens, UniProt Q92633).
T1 construct: expressed in transfected cells; host or cells: Chinese hamster ovary (CHO) cells
T1 sequence (Q92633 whole entry): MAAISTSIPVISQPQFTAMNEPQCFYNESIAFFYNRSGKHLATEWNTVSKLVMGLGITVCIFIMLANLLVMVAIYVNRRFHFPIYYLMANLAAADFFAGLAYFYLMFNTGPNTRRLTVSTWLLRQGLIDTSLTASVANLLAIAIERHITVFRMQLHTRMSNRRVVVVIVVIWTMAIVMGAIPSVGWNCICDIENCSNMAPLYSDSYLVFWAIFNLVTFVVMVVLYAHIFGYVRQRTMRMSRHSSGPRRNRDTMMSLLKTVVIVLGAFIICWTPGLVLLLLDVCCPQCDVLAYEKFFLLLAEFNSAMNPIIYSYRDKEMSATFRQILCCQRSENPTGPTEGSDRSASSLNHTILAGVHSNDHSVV
Put plainly: LPA1 functional antagonist assay (calcium flux). In kind it is cell-based. The following applies: CHO cells overexpressing human LPA1; calcium flux induced by 10 nM LPA; read-out: hLPA1 IC50. On the procedure: The effectiveness of compounds of the present invention as LPA1 inhibitors can be determined in an LPA1 functional antagonist assay as follows:
The cells were then equilibrated to room temperature for 30 minutes before the assay. […] IC50 values were determined by fitting data to a 4-parameter logistic equation (GraphPad Prism, San Diego Calif.).
(In general: A change in cytosolic calcium serves as a functional read-out for many receptors and channels.)
As for `Cc1nc(-c2nnn(C)c2NC(=O)OCC2CCCC2)ccc1O[C@H]1CCC[C@H](C(=O)O)C1` [Example 79, (1S,3S)-3-((6-(5-(((cyclopentylmethoxy)carbonyl)amino)-1-methyl-1H-1,2,3-triazol-4-yl)-2-methylpyridin-3-yl)oxy)cyclohexane-1-carboxylic acid], the pIC50 (usually the negative decadic logarithm of the IC50, by convention in mol/L) is 7.49.

As for `CCCN(C)C(=O)NCc1c(-c2ccc(O[C@H]3CCC[C@H](C(=O)O)C3)c(C)n2)nnn1C` [Example 110, (1S,3S)-3-((2-methyl-6-(1-methyl-5-((3-methyl-3-propylureido)methyl)-1H-1,2,3-triazol-4-yl)pyridin-3-yl)oxy)cyclohexanecarboxylic acid], the pIC50 is 6.66.

On to `CCCCCN(C)C(=O)NCc1c(-c2ccc(O[C@H]3CCC[C@H](C(=O)O)C3)c(C)n2)nnn1C` [Example 111, (1S,3S)-3-((2-methyl-6-(1-methyl-5-((3-methyl-3-pentylureido)methyl)-1H-1,2,3-triazol-4-yl)pyridin-3-yl)oxy)cyclohexanecarboxylic acid], for which the pIC50 is 6.65. The same measure, in the same setting: the figure for `CCCC1(COC(=O)NCc2c(-c3ccc(O[C@H]4CCC[C@H](C(=O)O)C4)cn3)nnn2C)CC1` [Example 50, (1S,3S)-3-((6-(1-methyl-5-(((((1-propylcyclopropyl)methoxy)carbonyl)amino)methyl)-1H-1,2,3-triazol-4-yl)pyridin-3-yl)oxy)cyclohexane-1-carboxylic acid] is 7.55; for `COc1ccc(OC(=O)NCc2c(-c3ccc(O[C@H]4CCC[C@H](C(=O)O)C4)c(C)n3)nnn2C)cc1` [Example 63, (1S,3S)-3-((6-(5-((((4-methoxyphenoxy)carbonyl)amino)methyl)-1-methyl-1H-1,2,3-triazol-4-yl)-2-methylpyridin-3-yl)oxy)cyclo-hexane-1-carboxylic acid] it is 6.10; for `Cc1nc(-c2nnn(C)c2CNC(=O)OCC2CC2(F)F)ccc1OC1CCCC(C(=O)O)C1` (single isomer, unassigned) [Example 207] it is 7.36. For `Cc1nc(-c2nnn(C)c2CNC(=O)NCC2CC(F)(F)C2)ccc1O[C@H]1CCC[C@H](C(=O)O)C1` [Example 123, (1S,3S)-3-((6-(5-((3-((3,3-difluorocyclo-butyl)methyl)ureido)methyl)-1-methyl-1H-1,2,3-triazol-4-yl)-2-methylpyridin-3-yl)oxy)cyclohexane-1-carboxylic acid], the pIC50 is 6.03. On the same count and under the same terms, the value for `Cc1nc(-c2nnn(C)c2NC(=O)OCC(C)C)ccc1O[C@H]1CCC[C@H](C(=O)O)C1` [Example 78, (1S,3S)-3-((6-(5-((isobutoxy-carbonyl)amino)-1-methyl-1H-1,2,3-triazol-4-yl)-2-methylpyridin-3-yl)oxy)cyclohexane-1-carboxylic acid] was 7.54. With `CCCCOC(=O)NCCc1c(-c2ccc(O[C@H]3CCC[C@H](C(=O)O)C3)c(C)n2)nnn1C` [Example 107, (1S,3S)-3-((6-(5-(2-((butoxy-carbonyl)amino)ethyl)-1-methyl-1H-1,2,3-triazol-4-yl)-2-methylpyridin-3-yl)oxy)cyclohexane-1-carboxylic acid], the pIC50 is 5.83. Consider `Cn1nnc(-c2ccc(O[C@H]3CCC[C@H](C(=O)O)C3)cn2)c1NC(=O)OC1CCCC1` [Example 90, (1S,3S)-3-((6-(5-(((cyclopentyloxy)carbonyl)amino)-1-methyl-1H-1,2,3-triazol-4-yl)pyridin-3-yl)oxy)cyclohexane-1-carboxylic acid], for which the pIC50 was 6.83. For `CCCCOC(=O)N(C)Cc1c(-c2ccc(O[C@H]3CCC[C@H](C(=O)O)C3)cn2)nnn1C` [Example 14, (1S,3S)-3-((6-(5-(((butoxycarbonyl)(methyl)amino)methyl)-1-methyl-1H-1,2,3-triazol-4-yl)pyridin-3-yl)oxy)cyclohexane-1-carboxylic acid], the pIC50 is 5.99. As for `Cn1nnc(-c2ccc(O[C@H]3CCC[C@H](C(=O)O)C3)c(C(F)(F)F)n2)c1CNC(=O)OCc1ccccc1` [Example 92, (1S,3S)-3-((6-(5-((((benzyloxy)carbonyl)amino)methyl)-1-methyl-1H-1,2,3-triazol-4-yl)-2-(trifluoro-methyl)pyridin-3-yl)oxy)cyclohexane-1-carboxylic acid], the pIC50 was 7.85. Take `Cc1nc(-c2nnn(C)c2NC(=O)OCCCF)ccc1O[C@H]1CCC[C@H](C(=O)O)C1` [Example 144, (1S,3S)-3-((6-(5-(((3-fluoropropoxy)carbonyl)amino)-1-methyl-1H-1,2,3-triazol-4-yl)-2-methylpyridin-3-yl)oxy)cyclohexane-1-carboxylic acid]: the pIC50 is 6.60. As for `CCCCOC(=O)NCc1c(-c2ccc(O[C@H]3CCC[C@H](C(=O)O)C3)c(C)n2)nnn1C` [Example 3, (1S,3S)-3-((6-(5-(((butoxycarbonyl)amino)methyl)-1-methyl-1H-1,2,3-triazol-4-yl)-2-methylpyridin-3-yl)oxy)cyclohexane-1-carboxylic acid], the pIC50 is 7.85. Turning to `CCCCOC(=O)Nc1c(-c2ccc(O[C@H]3CCC[C@H](C(=O)O)C3)c(C)n2)nnn1C` [Example 222, (1S,3S)-3-((6-(5-((butoxycarbonyl)amino)-1-methyl-1H-1,2,3-triazol-4-yl)-2-methylpyridin-3-yl)oxy)cyclohexane-1-carboxylic acid], the pIC50 is 7.68. On to `CCC1(COC(=O)NCc2c(-c3ccc(O[C@H]4CCC[C@H](C(=O)O)C4)c(C)n3)nnn2C)CC1` [Example 58, (1S,3S)-3-((6-(5-(((((1-ethylcyclopropyl)methoxy)carbonyl)amino)methyl)-1-methyl-1H-1,2,3-triazol-4-yl)-2-methylpyridin-3-yl)oxy)cyclohexane-1-carboxylic acid], for which the pIC50 is 7.42.

Still in this experiment, the particulars now being: human LPA1 functional antagonist assay; read-out: hLPA1 IC50.
For `Cc1nc(-c2nnn(C)c2CNC(=O)OCC2CC2(C)C)ccc1O[C@H]1CCC[C@H](C(=O)O)C1` (stereo partly drawn) [Example 164, (1S,3S)-3-((6-(5-(((((2,2-dimethyl-cyclopropyl)methoxy)carbonyl)amino)methyl)-1-methyl-1H-1,2,3-triazol-4-yl)-2-methylpyridin-3-yl)oxy)cyclohexane-1-carboxylic acid], the pIC50 is 7.19.

In the case of `Cc1nc(-c2nnn(C)c2CN(C)C(=O)OCC2CC2)ccc1O[C@H]1CCC[C@H](C(=O)O)C1` [Example 205, (1S,3S)-3-((6-(5-((((cyclopropylmethoxy)carbonyl)(methyl)amino)methyl)-1-methyl-1H-1,2,3-triazol-4-yl)-2-methyl-pyridin-3-yl)oxy)cyclohexane-1-carboxylic acid, TFA salt], the pIC50 is 6.48. Same read-out and setting: the figure for `CC(COC(=O)NCc1c(-c2ncc(O[C@H]3CCC[C@H](C(=O)O)C3)cn2)nnn1C)CC(F)(F)F` (stereo partly drawn) [Example 154, (1S,3S)-3-((2-(1-methyl-5-((((4,4,4-trifluoro-2-methylbutoxy)carbonyl)amino)methyl)-1H-1,2,3-triazol-4-yl)pyrimidin-5-yl)oxy)cyclohexane-1-carboxylic acid] is 5.54.

Consider `Cc1nc(-c2nnn(C)c2CNC(=O)OCC2CC(F)(F)C2)ccc1O[C@H]1CCC[C@H](C(=O)O)C1` [Example 182, (1S,3S)-3-((6-(5-(((((3,3-difluoro-cyclobutyl)methoxy)carbonyl)amino)methyl)-1-methyl-1H-1,2,3-triazol-4-yl)-2-methylpyridin-3-yl)oxy)cyclohexane-1-carboxylic acid], for which the pIC50 was 7.07.
